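Five compound concentrations were applied to cells in 96-well plates for 48 hours; endpoints were derived by simple linear interpolation of the resulting dose-response curve. GI50: concentration for 50% inhibition of growth. TGI: total growth inhibition.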
What was measured:
Experiment in all cases: DTP human tumour cell line panel, 48 h
786-0 renal = test system: 786-0 renal
A498 renal = test system: A498 renal
A549 NSCLC = test system: A549 NSCLC
ACHN renal = test system: ACHN renal
BT-549 breast = test system: BT-549 breast
CAKI-1 renal = test system: CAKI-1 renal
CCRF-CEM leukemia = test system: CCRF-CEM leukemia
COLO 205 colon = test system: COLO 205 colon
DU-145 prostate = test system: DU-145 prostate
EKVX NSCLC = test system: EKVX NSCLC
HCC-2998 colon = test system: HCC-2998 colon
HCT-116 colon = test system: HCT-116 colon
HCT-15 colon = test system: HCT-15 colon
HL-60(TB) leukemia = test system: HL-60(TB) leukemia
HOP-62 NSCLC = test system: HOP-62 NSCLC
HOP-92 NSCLC = test system: HOP-92 NSCLC
HS 578T breast = test system: HS 578T breast
IGROV1 ovarian = test system: IGROV1 ovarian
K-562 leukemia = test system: K-562 leukemia
KM12 colon = test system: KM12 colon
LOX IMVI melanoma = test system: LOX IMVI melanoma
M14 melanoma = test system: M14 melanoma
MALME-3M melanoma = test system: MALME-3M melanoma
MCF7 breast = test system: MCF7 breast
MDA-MB-231 breast = test system: MDA-MB-231 breast
MDA-MB-435 = test system: MDA-MB-435
MOLT-4 leukemia = test system: MOLT-4 leukemia
NCI-H226 lung = test system: NCI-H226 lung

Structure (SMILES): COc1ccc([C@H]2C(=O)N(c3cc(OC)c(OC)c(OC)c3)[C@@H]2c2ccc(OC)c(O)c2)cc1
- GI50 (786-0 renal): 32.4 nM
- TGI (786-0 renal): > 100000 nM
- GI50 (A498 renal): 33600 nM
- TGI (A498 renal): > 100000 nM
- GI50 (A549 NSCLC): 40.1 nM
- TGI (A549 NSCLC): > 100000 nM
- GI50 (ACHN renal): 53.5 nM
- TGI (ACHN renal): 69900 nM
- GI50 (BT-549 breast): 58 nM
- TGI (BT-549 breast): 3830 nM
- GI50 (CAKI-1 renal): 49 nM
- TGI (CAKI-1 renal): > 100000 nM
- GI50 (CCRF-CEM leukemia): 30.8 nM
- TGI (CCRF-CEM leukemia): > 100000 nM
- GI50 (COLO 205 colon): 30.3 nM
- TGI (COLO 205 colon): 83 nM
- GI50 (DU-145 prostate): 52.7 nM
- TGI (DU-145 prostate): > 100000 nM
- GI50 (EKVX NSCLC): 40.1 nM
- TGI (EKVX NSCLC): > 100000 nM
- GI50 (HCC-2998 colon): 36.1 nM
- TGI (HCC-2998 colon): 15500 nM
- GI50 (HCT-116 colon): 29.2 nM
- TGI (HCT-116 colon): > 100000 nM
- GI50 (HCT-15 colon): 30.5 nM
- TGI (HCT-15 colon): > 100000 nM
- GI50 (HL-60(TB) leukemia): 21.6 nM
- TGI (HL-60(TB) leukemia): 52.7 nM
- GI50 (HOP-62 NSCLC): 56.2 nM
- TGI (HOP-62 NSCLC): > 100000 nM
- GI50 (HOP-92 NSCLC): 1190 nM
- TGI (HOP-92 NSCLC): 78300 nM
- GI50 (HS 578T breast): 42.2 nM
- TGI (HS 578T breast): > 100000 nM
- GI50 (IGROV1 ovarian): 42.4 nM
- TGI (IGROV1 ovarian): > 100000 nM
- GI50 (K-562 leukemia): 27.6 nM
- TGI (K-562 leukemia): > 100000 nM
- GI50 (KM12 colon): 44.5 nM
- TGI (KM12 colon): > 100000 nM
- GI50 (LOX IMVI melanoma): 26.1 nM
- TGI (LOX IMVI melanoma): 82100 nM
- GI50 (M14 melanoma): 34.1 nM
- TGI (M14 melanoma): 17500 nM
- GI50 (MALME-3M melanoma): 35.7 nM
- TGI (MALME-3M melanoma): 34500 nM
- GI50 (MCF7 breast): 32.7 nM
- TGI (MCF7 breast): > 100000 nM
- GI50 (MDA-MB-231 breast): 31.8 nM
- TGI (MDA-MB-231 breast): > 100000 nM
- GI50 (MDA-MB-435): 29.7 nM
- TGI (MDA-MB-435): 1850 nM
- GI50 (MOLT-4 leukemia): 46.4 nM
- TGI (MOLT-4 leukemia): > 100000 nM
- GI50 (NCI-H226 lung): 27.4 nM
- TGI (NCI-H226 lung): 89.8 nM
